Key:
MEFs = conditions: cited from earlier work
[1] = cited from earlier work
[2] = system: OH mammary carcinoma system; conditions: mouse model; cited from earlier work
BOGA cells [3] = assay: Analysis of aberrant chromosomes in metaphase spreads; assay type: cell-based, human
Protocol: Cells collected 24 hr post-IR were analyzed for genomic instability by quantitating the percentage of metaphases presenting with chromosomal aberrations, as shown in the images. N, number of independent experiments (50 metaphases analyzed per condition in each experiment). […] (FIG. 5C) Control and BOGA cells were incubated with the cathepsin inhibitor E-64 or vehicle control (C) for 24 hr prior to IR, and the extent of genomic instability assessed as in FIG. 5B. […] Treatment protocol was as in FIG. 5B. […] Treatment performed as in FIG. 5C. […] All values expressed as mean±SEM. N, number of independent experiments; *p value of statistical significance (*p≦0.05).
Cells were treated with the PARPi EB-47 (E8405, Sigma-Aldrich) diluted in water at a concentration of 1.2 μg/mL for 48 hours.

[4] = system: BOGA cells (BRCA1-deficient MCF7 cells that overcome growth arrest); assay: Western blot of 53BP1 protein levels in BOGA cells after treatment; assay type: cell-based, human; conditions: vitamin D 10^−7M or E-64 10 μM vs vehicle
Protocol: (FIG. 2A) MCF7 cells were transduced with shRNAs specific for depletion of 53BP1 (sh 53BP1), BRCA1 (sh BRCA1), or both combined. After selection (puromycin and/or G418), BRCA1, 53BP1, and CTSL levels were monitored by western. […] (FIG. 2C) Control and BOGA cells were transduced with sh CTSL or sh scr and the levels of CTSL, BRCA1, and 53BP1 monitored by western blot. […] (FIG. 2E) Control or BOGA cells were incubated with the broad cathepsin inhibitor E-64 (10 μM) or with vehicle (H2O), and the levels of 53BP1 and CTSL monitored by western blot.
BGS was the vehicle in control media.
Cells were incubated with the broad spectrum cathepsin inhibitor E-64 (E3132, Sigma-Aldrich) diluted in water at a concentration of 10 μM for 24 hours.
Briefly, cells were washed twice with PBS, and incubated in CSK I buffer (10 mM PIPES pH6.8, 100 mM NaCl, 300 mM sucrose, 3 mM MgCl2, 1 mM EGTA, and 0.5% Triton X-100) for 5 minutes. Coverslips were washed 5 times with cold PBS and fixed in modified STF buffer (150 mM 2-Bromo-2-nitro-1,3,-propanediol, 108 mM diazolidinyl urea, 10 mM Na citrate, and 50 nM EDTA pH 5.7) for 30 minutes at room temperature. Coverslips were then washed twice with cold PBS and permeabilized (PB buffer: 100 mM Tris-HCl pH 7.4, 50 mM EDTA pH 8.0, and 0.5% Triton X-100) for 15 minutes at room temperature followed by 2 washes in PBS. […]

BOGA cells [5] = assay: Relative cell numbers 4 days after IR (recovery from IR); assay type: cell-based, human; conditions: 4 days after combined treatment with IR

C=C1/C(=C\C=C2/CCC[C@]3(C)[C@@H]([C@H](C)CCCC(C)(C)O)CC[C@@H]23)C[C@@H](O)C[C@@H]1O [vitamin D, 1α,25-dihydroxyvitamin D3]
53BP1 protein stability (MEFs): stabilizes 53BP1 protein in MEFs | CTSL activity (MEFs): inhibits CTSL activity | intake in published cases of toxicity involving hypercalcemia ([1]; cases with known dose and 25-hydroxy-vitamin D levels): 40,000 IU per day | sustained intake producing overt toxicity ([1]; healthy adults, after several months): more than 1250 micrograms/day

NC(=S)N/N=C(/c1cccc(O)c1)c1cccc(Br)c1 [KGP94]
malignant breast tumour growth delay [2]: showed great promise in this mouse model

Nc1ncnc2c1ncn2[C@@H]1O[C@H](C(=O)N2CCN(CC(=O)Nc3cccc4c3CNC4=O)CC2)[C@@H](O)[C@H]1O [PARPi]
genomic instability (metaphases with chromosomal aberrations), PARPi alone (BOGA cells [3]; EB-47 1.2 μg/mL for 48 hr): does not result in profound genomic instability

CC(C)C[C@H](NC(=O)[C@H]1O[C@@H]1C(=O)O)C(=O)NCCCCN=C(N)N [E-64]
53BP1 protein levels (western blot) [4]: increased levels of 53BP1 protein | percentage of metaphases with aberrant chromosomes after IR (BOGA cells [3]; treated 24 hr prior to 2 Gy, analysed 24 hr post-IR): markedly increased genomic instability after IR | recovery from IR (relative cell numbers) (BOGA cells [5]): significantly reduced their recovery from IR

Source: patent publication US20140186468A1, “DIAGNOSING SUBSETS OF TRIPLE-NEGATIVE BREAST CANCER” (priority 2012, published 2014)
